6 molecules from patent US11076594B2, “Pyrazolone compound or salt thereof, preparation method therefor, herbicide composition and use thereof” (QINGDAO KINGAGROOT CHEMICAL COMPOUNDS CO., LTD., priority 2015, dated 2021) can be followed below.

What all share (type): in vivo
In one data set the test system is rice. Nature of the data set: post-emergence stage experiment, crop (Table 1). To be noted: post-emergence spray at 4-5 leaf stage, 250 g/ha active ingredient with 450 kg/ha water, rated after 3 weeks in greenhouse. The essentials: (§1)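 Read-out is growth control rate based on fresh weight, determined 3 weeks after treatment. Plants raised from seed in potted soil (0.5-2 cm cover) in greenhouse were sprayed 2-3 weeks post-sowing at 4-5 leaves with acetone/Tween 80 aqueous compound solutions.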

For a further data set, the system named is bidens tripartite. The data set is described as follows: weed control effect evaluation in rice field. The arrangement: key: Level 10: completely dead; Level 9: above 95% growth control rate; Level 8: above 90% growth control rate; Level 7: above 80% growth control rate; Level 6: above 70% growth control rate; Level 5: above 60% growth control rate; Level 4: above 50% growth control rate; Level 3: above 20% growth control rate; Level 2: 5%-20% growth control rate; Level 1: below 5% growth control rate. The settings on record: 125 g/ha ai; rice field pot; 14 days after treatment; resistant to pyrazosulfuron-ethyl. An excerpt:
(§2) The activity level standard of harmful plant destruction (i.e. growth control rate) is as follows: Rice field soil was loaded into a 1/1,000,000 ha pot. The seeds of echinochloa, scirpus juncoides, bidens tripartite and sagittaria trifolia were sowed and gently covered with soil, then left to stand still in greenhouse in the state of 0.5-1 cm of water storage. The tuber of sagittaria trifolia was planted in the next day or 2 days later. It was kept at 3-4 cm of water storage thereafter. The weeds were treated by dripping the WP or SC water diluents prepared according to the common preparation method of the compounds of the present invention with pipette homogeneously to achieve specified effective amount when echinochloa, scirpus juncoides and bidens tripartite reached 0.5 leaf stage and sagittaria trifolia reached the time point of primary leaf stage. The fertility condition of echinochloa, scirpus juncoides, bidens tripartite and sagittaria trifolia 14 days after the treatment of the compound of the invention and the fertility condition of rice 21 days after the treatment of the compound of the invention respectively with the naked eye.

Data set [1] concerns echinochloa. Nature of the data set: weed control effect evaluation in rice field. The settings on record: 125 g/ha ai; rice field pot; 14 days after treatment; resistant to pyrazosulfuron-ethyl. Set-up: key: Level 10: completely dead; Level 9: above 95% growth control rate; Level 8: above 90% growth control rate; Level 7: above 80% growth control rate; Level 6: above 70% growth control rate; Level 5: above 60% growth control rate; Level 4: above 50% growth control rate; Level 3: above 20% growth control rate; Level 2: 5%-20% growth control rate; Level 1: below 5% growth control rate.
Source text: as §2

The test system of another data set is sagittaria trifolia. The data set is described as follows: weed control effect evaluation in rice field. Set-up: key: Level 10: completely dead; Level 9: above 95% growth control rate; Level 8: above 90% growth control rate; Level 7: above 80% growth control rate; Level 6: above 70% growth control rate; Level 5: above 60% growth control rate; Level 4: above 50% growth control rate; Level 3: above 20% growth control rate; Level 2: 5%-20% growth control rate; Level 1: below 5% growth control rate. To be noted: 125 g/ha ai; rice field pot; 14 days after treatment; resistant to pyrazosulfuron-ethyl.
Source text: as §2

In a further data set the test system is scirpus juncoides. Nature of the data set: weed control effect evaluation in rice field. Set-up: key: Level 10: completely dead; Level 9: above 95% growth control rate; Level 8: above 90% growth control rate; Level 7: above 80% growth control rate; Level 6: above 70% growth control rate; Level 5: above 60% growth control rate; Level 4: above 50% growth control rate; Level 3: above 20% growth control rate; Level 2: 5%-20% growth control rate; Level 1: below 5% growth control rate. To be noted: 125 g/ha ai; rice field pot; 14 days after treatment; resistant to pyrazosulfuron-ethyl.
Source text: as §2

In data set [2] the test system is echinochloa. Nature of the data set: weed control effect in post-emergence stage (Table 1). The arrangement: key: Level 10: completely dead; Level 9: above 95% growth control rate; Level 8: above 90% growth control rate; Level 7: above 80% growth control rate; Level 6: above 70% growth control rate; Level 5: above 60% growth control rate; Level 4: above 50% growth control rate; Level 3: above 20% growth control rate; Level 2: 5%-20% growth control rate; Level 1: below 5% growth control rate. To be noted: post-emergence spray at 4-5 leaf stage, 250 g/ha active ingredient with 450 kg/ha water, rated after 3 weeks in greenhouse. The essentials: as §1

A further data set deals with rorippa indica. Described as above. The arrangement: key: Level 10: completely dead; Level 9: above 95% growth control rate; Level 8: above 90% growth control rate; Level 7: above 80% growth control rate; Level 6: above 70% growth control rate; Level 5: above 60% growth control rate; Level 4: above 50% growth control rate; Level 3: above 20% growth control rate; Level 2: 5%-20% growth control rate; Level 1: below 5% growth control rate. The settings on record: post-emergence spray at 4-5 leaf stage, 250 g/ha active ingredient with 450 kg/ha water, rated after 3 weeks in greenhouse. The essentials: as §1

Another data set deals with bidens bipinnata. The description is as above. Set-up: key: Level 10: completely dead; Level 9: above 95% growth control rate; Level 8: above 90% growth control rate; Level 7: above 80% growth control rate; Level 6: above 70% growth control rate; Level 5: above 60% growth control rate; Level 4: above 50% growth control rate; Level 3: above 20% growth control rate; Level 2: 5%-20% growth control rate; Level 1: below 5% growth control rate. The settings on record: post-emergence spray at 4-5 leaf stage, 250 g/ha active ingredient with 450 kg/ha water, rated after 3 weeks in greenhouse. In outline:
as §1

For a further data set, the system named is crab grass. Described as above. The arrangement: key: Level 10: completely dead; Level 9: above 95% growth control rate; Level 8: above 90% growth control rate; Level 7: above 80% growth control rate; Level 6: above 70% growth control rate; Level 5: above 60% growth control rate; Level 4: above 50% growth control rate; Level 3: above 20% growth control rate; Level 2: 5%-20% growth control rate; Level 1: below 5% growth control rate. To be noted: post-emergence spray at 4-5 leaf stage, 250 g/ha active ingredient with 450 kg/ha water, rated after 3 weeks in greenhouse. The essentials: as §1

For a further data set, the system named is Indian mallow. Described as above. Set-up: key: Level 10: completely dead; Level 9: above 95% growth control rate; Level 8: above 90% growth control rate; Level 7: above 80% growth control rate; Level 6: above 70% growth control rate; Level 5: above 60% growth control rate; Level 4: above 50% growth control rate; Level 3: above 20% growth control rate; Level 2: 5%-20% growth control rate; Level 1: below 5% growth control rate. To be noted: post-emergence spray at 4-5 leaf stage, 250 g/ha active ingredient with 450 kg/ha water, rated after 3 weeks in greenhouse. In outline: as §1

The subject of a further data set is foxtail. The description is as above. Set-up: key: Level 10: completely dead; Level 9: above 95% growth control rate; Level 8: above 90% growth control rate; Level 7: above 80% growth control rate; Level 6: above 70% growth control rate; Level 5: above 60% growth control rate; Level 4: above 50% growth control rate; Level 3: above 20% growth control rate; Level 2: 5%-20% growth control rate; Level 1: below 5% growth control rate. The settings on record: post-emergence spray at 4-5 leaf stage, 250 g/ha active ingredient with 450 kg/ha water, rated after 3 weeks in greenhouse. In outline: as §1

Regarding `Cc1nn(C)cc1C(=O)Oc1c(C(=O)c2ccc(C(F)(F)F)c(N3CCCC3=O)c2Cl)c(C)nn1C` [Compound 023], in the data set with rice, the “effect on crop, Rice (level)” value was 4 (Level 4: above 50% growth control rate). Besides, the “Bidens tripartite weed control effect (activity level)” value (from here on “Bidens tripartite weed control effect”) in the data set on bidens tripartite is 10. Further, in the data set with echinochloa [1], the “Echinochloa weed control effect (activity level)” value (from here on “Echinochloa weed control effect”) was 10. In addition, the “Sagittaria trifolia weed control effect (activity level)” value (“Sagittaria trifolia weed control effect” below) with sagittaria trifolia is reported as 10. Besides, the “Scirpus juncoides weed control effect (activity level)” value (shortened to “Scirpus juncoides weed control effect”) in the data set on scirpus juncoides was found to be 10. For the same molecule, in the data set with echinochloa [2], the “weed control effect, Echinochloa (level)” value is 10. Moreover, the “weed control effect, Rorippa indica (level)” value in the data set on rorippa indica is on record as 10. Moreover, the “weed control effect, Bidens bipinnata (level)” value in the data set on bidens bipinnata amounted to 10. Also, the “weed control effect, Crab grass (level)” value in the data set on crab grass was 10. Moreover, in the data set on Indian mallow, the “weed control effect, Indian mallow (level)” value was found to be 10. The “weed control effect, Green foxtail (level)” value in the data set with foxtail is 10.
For the molecule `Cc1nn(C)c(O)c1C(=O)c1ccc(C(F)(F)F)c(N2CCCCC2=O)c1Cl` [Compound 035], in the data set with rice, the “effect on crop, Rice (level)” value is reported as 6 (Level 6: above 70% growth control rate). In addition, the “Bidens tripartite weed control effect” value in the data set with bidens tripartite was 9 (Level 9: above 95% growth control rate). Besides, the “Echinochloa weed control effect” value with echinochloa [1] is recorded as 8 (Level 8: above 90% growth control rate). The “Sagittaria trifolia weed control effect” value with sagittaria trifolia is given as 9 (Level 9: above 95% growth control rate). Besides, the “Scirpus juncoides weed control effect” value in the data set on scirpus juncoides is recorded as 10. In the data set on echinochloa [2], the “weed control effect, Echinochloa (level)” value is 7 (Level 7: above 80% growth control rate). The “weed control effect, Rorippa indica (level)” value in the data set on rorippa indica is recorded as 9 (Level 9: above 95% growth control rate). The “weed control effect, Bidens bipinnata (level)” value with bidens bipinnata was 9 (Level 9: above 95% growth control rate). In the data set with crab grass, the “weed control effect, Crab grass (level)” value is recorded as 8 (Level 8: above 90% growth control rate). Moreover, the “weed control effect, Indian mallow (level)” value with Indian mallow is on record as 9 (Level 9: above 95% growth control rate). The “weed control effect, Green foxtail (level)” value with foxtail is recorded as 10.
Take `CCOc1c(C(=O)Oc2c(C(=O)c3ccc(C(F)(F)F)c(N4CCCCC4=O)c3Cl)c(C)nn2C)cnn1C` [Compound 037]: the “effect on crop, Rice (level)” value in the data set on rice is reported as 3 (Level 3: above 20% growth control rate). In addition, the “Bidens tripartite weed control effect” value in the data set with bidens tripartite came out at 10. For the same molecule, the “Echinochloa weed control effect” value with echinochloa [1] was 10. Also, the “Sagittaria trifolia weed control effect” value in the data set with sagittaria trifolia amounted to 10. The “Scirpus juncoides weed control effect” value in the data set with scirpus juncoides turned out to be 10. Moreover, the “weed control effect, Echinochloa (level)” value with echinochloa [2] stood at 10. For the same molecule, in the data set with rorippa indica, the “weed control effect, Rorippa indica (level)” value was 10. In the data set with bidens bipinnata, the “weed control effect, Bidens bipinnata (level)” value came out at 10. Further, in the data set with crab grass, the “weed control effect, Crab grass (level)” value is 6 (Level 6: above 70% growth control rate). Also, the “weed control effect, Indian mallow (level)” value in the data set with Indian mallow is 10. Further, the “weed control effect, Green foxtail (level)” value with foxtail stood at 10.
As for `CCOc1c(C(=O)Oc2c(C(=O)c3ccc(C(F)(F)F)c(-n4cccn4)c3Cl)c(C)nn2C)cnn1C` [Compound 071], the “effect on crop, Rice (level)” value in the data set on rice is given as 1 (Level 1: below 5% growth control rate). Also, the “Bidens tripartite weed control effect” value in the data set with bidens tripartite is given as 8 (Level 8: above 90% growth control rate). In addition, the “Echinochloa weed control effect” value in the data set with echinochloa [1] is given as 10. For the same molecule, the “Sagittaria trifolia weed control effect” value with sagittaria trifolia is 10. The “Scirpus juncoides weed control effect” value in the data set on scirpus juncoides came to 10. The “weed control effect, Echinochloa (level)” value with echinochloa [2] is given as 6 (Level 6: above 70% growth control rate). In addition, the “weed control effect, Rorippa indica (level)” value in the data set with rorippa indica amounted to 10. The “weed control effect, Bidens bipinnata (level)” value in the data set on bidens bipinnata is given as 7 (Level 7: above 80% growth control rate). In the data set with crab grass, the “weed control effect, Crab grass (level)” value was 4 (Level 4: above 50% growth control rate). Also, in the data set on Indian mallow, the “weed control effect, Indian mallow (level)” value is given as 10. In the data set with foxtail, the “weed control effect, Green foxtail (level)” value is 8 (Level 8: above 90% growth control rate).
Regarding `CCOc1c(C(=O)Oc2c(C(=O)c3ccc(C(F)(F)F)c(-n4cc(C)cn4)c3Cl)cnn2C)cnn1C` [Compound 081], in the data set with rice, the “effect on crop, Rice (level)” value is reported as 3 (Level 3: above 20% growth control rate). Further, the “Bidens tripartite weed control effect” value with bidens tripartite amounted to 10. Further, the “Echinochloa weed control effect” value with echinochloa [1] was found to be 10. In addition, the “Sagittaria trifolia weed control effect” value in the data set on sagittaria trifolia is listed as 10. For the same molecule, the “Scirpus juncoides weed control effect” value in the data set with scirpus juncoides worked out at 10. In the data set with echinochloa [2], the “weed control effect, Echinochloa (level)” value turned out to be 10. Also, the “weed control effect, Rorippa indica (level)” value in the data set on rorippa indica is 10. In addition, in the data set on bidens bipinnata, the “weed control effect, Bidens bipinnata (level)” value was found to be 10. Also, the “weed control effect, Crab grass (level)” value with crab grass is on record as 7 (Level 7: above 80% growth control rate). For the same molecule, the “weed control effect, Indian mallow (level)” value in the data set with Indian mallow was found to be 10. Besides, in the data set on foxtail, the “weed control effect, Green foxtail (level)” value was 8 (Level 8: above 90% growth control rate).
Take `CCOc1c(C(=O)Oc2c(C(=O)c3ccc(C(F)(F)F)c(-n4cc(C)cn4)c3Cl)c(C3CC3)nn2C)cnn1C` [Compound 092]: in the data set on rice, the “effect on crop, Rice (level)” value is 2 (Level 2: 5%-20% growth control rate). In addition, the “Bidens tripartite weed control effect” value in the data set on bidens tripartite is 9 (Level 9: above 95% growth control rate). Also, the “Echinochloa weed control effect” value in the data set on echinochloa [1] was determined as 10. In addition, the “Sagittaria trifolia weed control effect” value in the data set on sagittaria trifolia is given as 10. Besides, in the data set with scirpus juncoides, the “Scirpus juncoides weed control effect” value was determined as 10. In the data set on echinochloa [2], the “weed control effect, Echinochloa (level)” value is 6 (Level 6: above 70% growth control rate). In addition, the “weed control effect, Rorippa indica (level)” value with rorippa indica amounted to 10. Also, the “weed control effect, Bidens bipinnata (level)” value in the data set on bidens bipinnata is 8 (Level 8: above 90% growth control rate). In the data set with crab grass, the “weed control effect, Crab grass (level)” value is listed as 3 (Level 3: above 20% growth control rate). The “weed control effect, Indian mallow (level)” value with Indian mallow amounted to 10. Moreover, the “weed control effect, Green foxtail (level)” value with foxtail was 8 (Level 8: above 90% growth control rate).
